Measured values: US10561633B2, “Hydroxyflavanones as appetite stimulants” (Symrise AG, priority 2014, dated 2020)
Marks after values point to notes of the source that are not given here.

Key:
[1] = tested on: Human neuroblastoma cells (SH-SY5Y); test: Serotonin release from SH-SY5Y cells (Serotonin-ELISA, normalised to DNA content); format: cell-based; settings: 5 min stimulation, relative to control (0.1% EtOH)
Procedure: Human neuroblastoma cells (SH-SY5Y, ATCC number CRL-2266) are used as the cell model for the release of the neurotransmitter serotonin. Cultivation takes place at 37° C. and 5% CO2 content with a mixture consisting of equal parts of Eagle's minimal essential medium (MEM) and F12 medium (in each case with 10% FBS and 1 penicillin/streptomycin). For measurement of the serotonin release, the cells are harvested with trypsin and, after a vitality test by trypan blue staining, sown in 35 mm cell culture dishes in a defined cell number.
After stimulation of 1.25*10^6 human neuroblastoma cells (SH-SY5Y) for 5 minutes with 300 μl of Krebs-Ringer-HEPES buffer, 0.1% ascorbic acid, pH 6.2, with or without addition of the homoeriodictyol, wherein concentrations of 0.001 μM, 0.01 μM, 0.1 μM, 1 μM and 10 μM in the Krebs-Ringer-HEPES buffer are established when the homoeriodictyol is added, the serotonin content is determined by means of an enzyme-based detection method (Serotonin-ELISA sensitive, DLD Diagnostica, Hamburg, Germany). The cells are lyzed with a buffer containing sodium lauroyl sarcosinate and the DNA content is determined by means of a NanoQuant plate (Tecan, Ménnendorf, Switzerland) for normalization of the serotonin release.
The results are shown in % relative to the control (buffer with 0.1% ethanol). n=3, tR=2. Significant differences in the treatments relative to the control were tested with a single-factor ANOVA with a subsequent Holm-Sidak post hoc test against the control and marked according to the following scheme: * p≤0.05; ** p≤0.01; *** p≤0.001. Concentration-dependent differences were tested with a single-factor ANOVA with a subsequent Holm-Sidak post hoc test and identified by different letters (a, b), wherein no common letter marks a significant difference.

[2] = tested on: serotonin plasma concentration; test: Absolute plasma serotonin concentration after oral administration of 30 mg of homoeriodictyol; format: in vivo, human; settings: after oral administration of 30 mg in 125 ml of water, on average 35 minutes, healthy subjects, n=16; before administration 306 ± 152; p<0.05
Procedure: In order to determine the serotonin plasma concentration, whole blood is taken from healthy subjects on a test day before and on average 35 minutes after administration of 30 mg of homoeriodictyol dissolved in 125 ml of water. The plasma is obtained from the whole blood by refrigerated centrifugation for 15 minutes at 1800×g, and the serotonin concentration in the plasma is determined by an enzyme-based detection method (Serotonin-ELISA, DLD Diagnostika, Germany).
The change in the serotonin plasma concentration before and after administration of 30 mg of homoeriodictyol dissolved in 125 ml of water is shown in Table 3. There is a significant difference between the two treatments (p<0.05, n=16), which was determined by a dependent, two-sided Student's T-test and is marked *.

3T3-L1 adipocytes = test: Fatty acid uptake in 3T3-L1 adipocytes (QBT Fatty Acid Uptake kit); format: cell-based; settings: 30 min preincubation, AUC of fluorescence over one hour vs EtOH control
Procedure: 3T3-L1 preadipocytes (ATCC CL-173) are used as the cell model for the uptake of free fatty acid into peripheral cells, here adipocytes. Cultivation is carried out at 37° C. and 5% CO2 content in DMEM culture medium to which 10% FBS 4% L-glutamine and 1% penicillin/streptomycin have been added. In order to measure the fatty acid uptake, the 3T3-L1 cells are differentiated in 175 cm^2 cell culture bottles from fully matured adipocytes. To that end, two days after reaching confluence, the cells are stimulated to differentiate for 48 hours by the addition of 10 μg/ml insulin, 1 μM dexamethasone and 0.5 mM isobutyl methyl xanthine from the culture medium. After the cells have been treated for a further 48 hours with 10 μg/ml insulin in the cell culture medium, normal culture medium is again used until the adipocytes are fully mature. The cells are usually used for the test seven to nine days after the onset of differentiation. To that end, the cells are harvested with trypsin and, after a positive vitality test with trypan blue, scattered in a 96-well plate at a rate of 65,000 cells per well. Measurement of the fatty acid uptake is carried out after a 60-minute synchronization of the cells by removal of the fetal bovine serum and a 30-minute preincubation with Hank's balanced salt solution, to which 20 mM HEPES (HBSS/HEPES), with or without the addition of from 0.01 to 10 μM of homoeriodictyol, by means of a fluorescence-labeled fatty acid analog (QBT Fatty Acid Uptake kit, Molecular Devices, Germany), have been added. The change in the area under the curve formed by the increase in the fluorescence signal over the course of one hour is shown in % in comparison with the control. The change in the fatty acid uptake in 3T3-L1 adipocytes after preincubation for 30 minutes with HESS/HEPES buffer with 0.1% ethanol (control) or 0.01-10 μM homoeriodictyol dissolved in HBSS/HEPES buffer is shown in Table 4. Significant differences (p<0.001) relative to the control were tested with a single-factor ANOVA against the control with a subsequent Dunn's post hoc test and are marked ***. Mean values from 3-4 independent experiments with in each case 3 repetitions are shown.

[3] = tested on: serotonin plasma concentration; test: Change in serotonin plasma concentration of healthy subjects after oral homoeriodictyol (crossover human intervention); format: in vivo; settings: 30 mg oral in 125 ml of water, on average 37 minutes after administration, n=10, water control −6.81 ± 10.6, p<0.05
Procedure: In order to determine the serotonin plasma concentration, whole blood is taken from healthy subjects in each case on a test day before and on average 37 minutes after administration of the test solution (1st test day: 125 ml of water; 2nd test day: 30 mg of homoeriodictyol dissolved in 125 ml of water).
The plasma is obtained from the whole blood by refrigerated centrifugation for 15 minutes at 1800×g, and the serotonin concentration in the plasma is determined by an enzyme-based detection method (Serotonin ELISA, DLD Diagnostika, Germany).
The change in the serotonin plasma concentration before and after administration of 125 ml of water or 30 mg of homoeriodictyol dissolved in 125 ml of water is shown in Table 2. There is a significant difference between the two treatments (p<0.05; n=10), which was determined by a dependent, two-sided Student's T-test and is marked *.

## COc1cc(C2CC(=O)c3c(O)cc(O)cc3O2)ccc1O (centres unmarked) [Homoeriodictyol, homoeriodictyol]
[1]; 0.001 μM
  Serotonin release T/C: 62.2%
[1]; 0.01 μM
  Serotonin release T/C: 42.9%
[1]; 0.1 μM
  Serotonin release T/C: 42.6%
[1]; 1 μM
  Serotonin release T/C: 43.5%
[1]; 10 μM
  Serotonin release T/C: 71.9%
[2]
  Serotonin concentration in the plasma: 192 ± 122 nmol
3T3-L1 adipocytes; 0.01 μM
  Change in fatty acid uptake: 4.34%
3T3-L1 adipocytes; 0.1 μM, p<0.001
  Change in fatty acid uptake: 8.78*** %
3T3-L1 adipocytes; 1 μM
  Change in fatty acid uptake: 4.10%
3T3-L1 adipocytes; 10 μM
  Change in fatty acid uptake: −0.47%
[3]
  Change in the serotonin concentration in the plasma after administration of the test solution: −19.1 ± 10.6
